Experiment: Crystal form stability versus relative humidity
Type: physicochemical

| SMILES | Crystal form stability (room temperature and relative humidity greater than about 15%) | Crystal form stability (room temperature and relative humidity less than about 15%) |
| --- | --- | --- |
| COc1cnc(C(=O)Nc2ccc(F)c([C@]34CN(c5ncc(F)cn5)C[C@@H]3CN=C(N)S4)c2)cn1.O [Example 1B, Crystalline Form 2 N-[3-[(4aR,7aS)-2-Amino-6-(5-fluoropyrimidin-2-yl)-4,4a,5,7-tetrahydropyrrolo[3,4-d][1,3]thiazin-7a-yl]-4-fluoro-phenyl]-5-methoxy-pyrazine-2-carboxamide (hydrated)] | stable crystal form |  |
| COc1cnc(C(=O)Nc2ccc(F)c([C@]34CN(c5ncc(F)cn5)C[C@H]3CSC(N)=N4)c2)cn1 [Example 1A, Crystalline Form 1 N-[3-[(4aR,7aS)-2-Amino-6-(5-fluoropyrimidin-2-yl)-4,4a,5,7-tetrahydropyrrolo[3,4-d][1,3]thiazin-7a-yl]-4-fluoro-phenyl]-5-methoxy-pyrazine-2-carboxamide] |  | stable crystal form |
